Measurements: patent US9616245B2, “Method of treating cells with drug and radiation according to proton density” (priority 2009, dated 2017)
Where two headings read alike, the source gives them in different places.

Key:
[1] = test system: head and neck tumor cell lines; settings: Clin. Cancer Res. 2005; 11(19); cited from earlier work
cycloxygenase = settings: cited from earlier work
[2] = test system: peripheral blood monocytes and alveolar macrophages; settings: cited from earlier work
cancer cells = settings: cited from earlier work
IkB kinase = settings: cited from earlier work
[3] = molecular target: inducible nitric oxide synthase (iNOS) (Homo sapiens, UniProt P35228); settings: cited from earlier work
lipoxygenase = settings: cited from earlier work
protein kinase C (PKC) = settings: cited from earlier work

Chain of inducible nitric oxide synthase (iNOS) (P35228 whole entry, species assumed): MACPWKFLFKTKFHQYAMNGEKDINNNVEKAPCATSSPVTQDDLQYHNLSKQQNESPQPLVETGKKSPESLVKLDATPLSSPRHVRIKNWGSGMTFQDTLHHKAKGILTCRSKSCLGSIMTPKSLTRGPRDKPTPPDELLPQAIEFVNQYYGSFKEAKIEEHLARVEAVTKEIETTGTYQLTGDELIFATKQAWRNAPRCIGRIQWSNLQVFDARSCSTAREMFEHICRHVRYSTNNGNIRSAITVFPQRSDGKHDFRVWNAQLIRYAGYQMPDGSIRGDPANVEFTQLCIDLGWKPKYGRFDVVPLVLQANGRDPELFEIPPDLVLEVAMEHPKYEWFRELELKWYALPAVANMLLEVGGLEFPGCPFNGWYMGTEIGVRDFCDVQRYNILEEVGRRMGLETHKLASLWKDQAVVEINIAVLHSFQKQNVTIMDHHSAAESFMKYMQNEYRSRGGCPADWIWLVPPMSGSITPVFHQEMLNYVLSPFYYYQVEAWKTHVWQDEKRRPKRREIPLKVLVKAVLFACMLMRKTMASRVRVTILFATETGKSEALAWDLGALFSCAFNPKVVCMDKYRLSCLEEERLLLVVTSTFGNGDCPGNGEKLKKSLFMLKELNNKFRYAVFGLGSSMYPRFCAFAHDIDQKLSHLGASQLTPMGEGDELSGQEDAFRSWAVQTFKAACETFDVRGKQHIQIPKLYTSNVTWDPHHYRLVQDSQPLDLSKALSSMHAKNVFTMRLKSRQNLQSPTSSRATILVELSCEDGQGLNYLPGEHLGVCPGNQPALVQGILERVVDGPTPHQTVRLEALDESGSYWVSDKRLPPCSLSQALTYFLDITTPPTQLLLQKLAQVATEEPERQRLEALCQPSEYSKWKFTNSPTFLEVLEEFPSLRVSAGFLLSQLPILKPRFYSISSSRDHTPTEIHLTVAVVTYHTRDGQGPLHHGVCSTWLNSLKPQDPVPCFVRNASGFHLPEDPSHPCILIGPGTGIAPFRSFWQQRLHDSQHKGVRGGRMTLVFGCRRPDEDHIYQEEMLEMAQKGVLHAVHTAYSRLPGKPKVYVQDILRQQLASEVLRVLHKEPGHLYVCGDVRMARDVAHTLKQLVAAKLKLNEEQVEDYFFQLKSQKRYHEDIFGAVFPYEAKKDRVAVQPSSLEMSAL
Protocol for recurrent Meduloblastoma: They also had high-grade fever. The chemotherapy was stopped for a week and given a blood transfusion and stabilized the patient. In the second leg the patient was then put on FORN mediated metronomic chemotherapy upon the request of their parent.
During the FORN break period, as advised by the patient's treating oncologist, the patient continued the chemotherapy without FORN. Thus during the third leg the patient took chemotherapy without FORN. […] Another transfusion of blood was conducted.
During the third leg of the trial, the cytotoxic drugs were continued to be administered, without the use of FORN.

COc1cc(/C=C/C(=O)CC(=O)/C=C/c2ccc(O)c(OC)c2)ccc1O [Curcumin]
growth of tumor cell lines [1]: suppresses growth
inhibition of cycloxygenase (cycloxygenase): inhibits
production of inflammatory cytokines [2]: inhibit production
apoptosis (programmed cell death) (cancer cells): induce apoptosis
inhibition of IkB kinase (IkB kinase): potent inhibitor
inhibition of iNOS [3]: inhibits
inhibition of lipoxygenase (lipoxygenase): inhibits
inhibition of phorbol ester induced PKC activity (protein kinase C (PKC)): inhibits

O=P1(N(CCCl)CCCl)NCCCO1 (stereo not shown) [Cyclophosphamide]
bone marrow / blood counts (recurrent Meduloblastoma; first leg, without FORN, metronomic mode with three anti angiogenic drugs, after 2 weeks): severe bone marrow depression

COc1cc([C@@H]2c3cc4c(cc3[C@@H](O[C@@H]3O[C@@H]5CO[C@@H](C)O[C@H]5[C@H](O)[C@H]3O)[C@H]3COC(=O)[C@H]23)OCO4)cc(OC)c1O [VP 16, Etoposide]
bone marrow / blood counts (recurrent Meduloblastoma; human, in vivo): severe bone marrow depression
